Measured values reported in patent publication US20260365677A1, “NEW CONTRAST AGENTS FOR USE IN DIAGNOSTIC IMAGING” (Bayer Aktiengesellschaft, priority 2022, published 2026).

Assays:
[1] = Relaxivity measurements at 1.41 T in water and human plasma; format: physicochemical; settings: 37 °C, normalized to Gd
Experimental: Relaxivity measurements at 1.41 T were performed using a MiniSpec mq60 spectrometer (Bruker Analytik, Karlsruhe, Germany) operating at a resonance frequency of 60 MHz and a temperature of 37 °C. The T1 relaxation times were determined using the standard inversion recovery (IR) method with a fixed relaxation delay of at least 5×T1. The variable inversion time (TI) was calculated automatically by the standard software of the MiniSpec mq60 (8 steps). The T2 measurements were performed by using a Carr-Purcell-Meiboom-Gill (CPMG) pulse sequence, applying a relaxation delay of at least 5×T1.
Each relaxivity measurement was performed using three different Gd concentrations (3 concentrations between 0.05 and 2 mM). The T1 and T2 relaxation times of the example compounds 1 to 10 were measured in different media for example in water and human plasma. Human plasma preparation: For each experiment fresh blood was taken from a volunteer using 10 mL citrate-tubes (Sarstedt S-Monovette 02.1067.001, 10 mL, Citrate). The 10 mL citrate-tubes were carefully inverted 10 times to mix blood and anticoagulant and centrifuged for 15 min at 1811 g at RT (Eppendorf, Centrifuge 5810R).
The relaxivities ri (where i=1, 2) were calculated based on the measured relaxation rates R, in water and plasma:
where Ri(0) represent the relaxation rate of the respective solvent and CGd the concentration of the compound normalized to the Gadolinium. The Gadolinium concentrations of the investigated solutions were verified by Inductively Coupled Plasma Mass Spectrometry (ICP-MS Agilent 7500a, Waldbronn, Germany).

OATP1B1 = biological target: T1, OATP1B1 (Homo sapiens, UniProt Q9Y6L6); test: Uptake into stable transfected OATP1B1 HEK 293 cells; format: cell-based; settings: 100 μM, 40 min, relative to RC1 (Gd-EOB-DTPA)
T1 construct: expressed in transfected cells
T1 sequence (Q9Y6L6 1-691): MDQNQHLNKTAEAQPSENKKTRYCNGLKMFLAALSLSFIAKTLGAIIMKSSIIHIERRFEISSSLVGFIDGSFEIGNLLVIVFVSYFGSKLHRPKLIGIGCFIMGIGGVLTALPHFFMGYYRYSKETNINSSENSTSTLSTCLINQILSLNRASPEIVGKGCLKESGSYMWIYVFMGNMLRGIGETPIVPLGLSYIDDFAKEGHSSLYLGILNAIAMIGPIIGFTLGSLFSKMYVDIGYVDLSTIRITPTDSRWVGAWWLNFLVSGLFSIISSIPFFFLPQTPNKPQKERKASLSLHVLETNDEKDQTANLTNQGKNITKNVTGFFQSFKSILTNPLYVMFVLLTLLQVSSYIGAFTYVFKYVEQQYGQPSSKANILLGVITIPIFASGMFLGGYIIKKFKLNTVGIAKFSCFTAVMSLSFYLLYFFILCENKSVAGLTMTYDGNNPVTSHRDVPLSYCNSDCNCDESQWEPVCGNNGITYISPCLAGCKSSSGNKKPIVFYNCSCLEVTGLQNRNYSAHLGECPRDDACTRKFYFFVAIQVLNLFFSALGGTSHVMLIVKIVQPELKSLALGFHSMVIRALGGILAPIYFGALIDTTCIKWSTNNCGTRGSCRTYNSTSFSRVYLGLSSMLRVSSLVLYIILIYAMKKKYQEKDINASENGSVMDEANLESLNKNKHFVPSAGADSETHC
Experimental: Human stable transfected OATP1 B1 human embryonic kidney 293 cells (OATP1 B1 HEK 293, SLCO1B1, Entrez Gene ID: 10599) were used (Leonhardt M et al. Drug Metab Dispos. 2010 July; 38(7):1024-8). The following culture medium was used: 500 mL DMEM (Dulbecco's Modified Eagle Medium—high Glucose, D6429), 50 mL FCS (fetal bovine serum, Fa. Sigma, F7524), 5.8 mL G418 (Geneticin, Fa. Gibco 10131-027) and 5 mL Pen-Strep. (Penicillin-Streptomycin, Fa. Gibco, Ref 15140-122). Cryopreserved cells were shortly thawed in water bath and diluted in 10 mL warm culture medium (37 °C). After medium change the cells were grown for 3d in a 25 cm^2 cell culture flask. After 3 to 5d the cells were transferred into 75 cm^2 flasks. For the splitting the cells were incubated with 1.5 mL trypsin (Trypsin-EDTA (1×) 0.05%, Ref 25300-054 100 ml, Fa. Gibco) for 3-5 min in the incubator (37 °C, 5% CO2 and 95% oxygen). After centrifugation and washing with medium the cells were counted (50 μL cell suspension and 50 μL trypan blue (Trypan Blue Solution, 93595-50 ml, Fa. Fluka). Cells were cultured (1×10^5 cells/well) in poly-D-lysine coated 24-well plates (Fa. Corning, Ref: 354414) in 1.5 mL medium per well. After 48 h in the incubator the medium was changed and 1.5 mL/well sodium butyrate containing medium were added (40 mL culture medium plus 400 μL Na-Butyrate, Fa. Sigma Aldrich B5887-5G, 250 mg in 2.27 mL MilliQ water). After 24 h in the incubator the medium was vacuumed off and 1.5 mL transport buffer was added and incubated for 10 min. The transport buffer contains the following ingredients: 500 mL HBSS (Hank's balanced salt solution, Hyclone, SH30268.01), 5 mL HEPES buffer (4-(2-hydroxyethyl)-1-piperazine-ethanesulfonic acid, Gibco 15630-056) and 3.9 mL glucose (Sigma, G8270-100, 90 g/200 mL MilliQ water). All test items were prepared in transport buffer at a final concentration of 100 μM from stock solutions (180 to 500 mM concentration). The OATP1B1 HEK 293 cells were incubated with test solutions (test item in transport buffer 500 μL) for 40 min on a thermoshaker without shaking (PHMP, Fa. Grant Bio). Triplicates were performed for each test item. After incubation the cells were washed with 2 mL of cold PBS (+) buffer (Dulbeccos PBS+, Fa. Gibco). […] As a reference standard Gd-EOB-DTPA (gadoxetate) is used in the same well plate. The OATP1B1 HEK 293 uptake of the test compound is calculated relative to gadoxetate (resulting in the unit % of RC1).

Row | SMILES | r1 human plasma [1] [L/mmol/s] | r1 water [1] [L/mmol/s] | Uptake into OATP1B1-HEK 293 cells (OATP1B1)
1 | CCOc1ccc(CC2CN(CC(=O)[O-])CCN(CC(=O)[O-])CCN(CC(=O)O)CCN2CC(=O)[O-])cc1.[Gd+3] (single isomer, unassigned; diastereomer 1) [Example 8, Gadolinium-2,2′,2″-[10-(carboxymethyl)-2-(4-ethoxybenzyl)-1,4,7,10-tetraazacyclododecane-1,4,7-triyl]triacetate (racemic diastereomer 1)] | 6.5 | 4.7 | 208 % of RC1
2 | CCOc1ccc(CC2CN(CC(=O)[O-])CCN(CC(=O)[O-])CCN(CC(=O)O)CCN2CC(=O)[O-])cc1.[Gd+3] (single isomer, unassigned; diastereomer 2) [Example 9, Gadolinium-2,2′,2″-[10-(carboxymethyl)-2-(4-ethoxybenzyl)-1,4,7,10-tetraazacyclododecane-1,4,7-triyl]triacetate (racemic diastereomer 2)] | 5.6 | 4.3 | 60 % of RC1
3 | CCOc1ccc(C[C@H]2CN(CC(=O)[O-])CCN(CC(=O)[O-])CCN(CC(=O)O)CCN2CC(=O)[O-])cc1.[Gd+3] (single isomer, unassigned; stereoisomer 1) [Example 10] | 6.4 | 4.8 | 212 % of RC1
4 | CCCCOc1ccc(C[C@H]2CN(CC(=O)[O-])CCN(CC(=O)[O-])CCN(CC(=O)O)CCN2CC(=O)[O-])cc1.[Gd+3] (single isomer, unassigned; stereoisomer 1) [Example 12] | 8.8 | 4.7 | 119 % of RC1
5 | CCOc1ccc(C[C@H]2CN(CC(=O)[O-])CCN(CC(=O)[O-])CCN(CC(=O)O)CCN2CC(=O)[O-])cc1.[Gd+3] (single isomer, unassigned; stereoisomer 2) [Example 11] | 6.2 | 4.4 | 96 % of RC1
6 | CCCCOc1ccc(C[C@H]2CN(CC(=O)[O-])CCN(CC(=O)[O-])CCN(CC(=O)O)CCN2CC(=O)[O-])cc1.[Gd+3] (single isomer, unassigned; stereoisomer 2) [Example 13] | 9.8 | 5.3 | 847 % of RC1
7 | COCCOCCOCCOc1ccc(C[C@H]2CN(CC(=O)[O-])CCN(CC(=O)[O-])CCN(CC(=O)O)CCN2CC(=O)[O-])cc1.[Gd+3] [Example 1, Gadolinium-2,2′,2″-[(2S)-10-(carboxymethyl)-2-(4-{2-[2-(2-methoxyethoxy)-ethoxy]ethoxy}benzyl)-1,4,7,10-tetraazacyclododecane-1,4,7-triyl]triacetate] | 6.6 | 5.1 | 143 % of RC1
8 | CCOCCOCCOc1ccc(C[C@H]2CN(CC(=O)[O-])CCN(CC(=O)[O-])CCN(CC(=O)O)CCN2CC(=O)[O-])cc1.[Gd+3] [Example 2, Gadolinium-2,2′,2″-[(2S)-10-(carboxymethyl)-2-{4-[2-(2-ethoxyethoxy)ethoxy]benzyl}-1,4,7,10-tetraazacyclododecane-1,4,7-triyl]triacetate] | 5.9 | 4.9 | 282 % of RC1
9 | COCCOCCOCCOc1ccc(C[C@@H]2CN(CC(=O)[O-])CCN(CC(=O)[O-])CCN(CC(=O)O)CCN2CC(=O)[O-])cc1.[Gd+3] [Example 3, Gadolinium-2,2′,2″-[(2R)-10-(carboxymethyl)-2-(4-{2-[2-(2-methoxyethoxy)ethoxy]ethoxy}benzyl)-1,4,7,10-tetraazacyclododecane-1,4,7-triyl]triacetate] | 6.8 | 5.0 | 120 % of RC1
10 | CCOCCOc1ccc(C[C@H]2CN(CC(=O)[O-])CCN(CC(=O)[O-])CCN(CC(=O)O)CCN2CC(=O)[O-])cc1.[Gd+3] [Example 4, Gadolinium-2,2′,2″-{(2S)-10-(carboxymethyl)-2-[4-(2-ethoxyethoxy)benzyl]-1,4,7,10-tetraazacyclododecane-1,4,7-triyl}triacetate] | 6.6 | 4.8 | 65 % of RC1
11 | CCOCCOCCOCCOc1ccc(C[C@H]2CN(CC(=O)[O-])CCN(CC(=O)[O-])CCN(CC(=O)O)CCN2CC(=O)[O-])cc1.[Gd+3] [Example 5, Gadolinium-2,2′,2″-[(2S)-10-(carboxymethyl)-2-(4-{2-[2-(2-ethoxyethoxy)ethoxy]ethoxy}benzyl)-1,4,7,10-tetraazacyclododecane-1,4,7-triyl]triacetate] | 5.7 | 5.1 | 78 % of RC1
12 | CCOCCOCCOc1ccc(C[C@H]2CN(CC(=O)[O-])CCN(CC(=O)[O-])CCN(CC(=O)O)CCN2CC(=O)[O-])nc1.[Gd+3] [Example 6, Gadolinium 2,2′,2″-[(2S)-10-(carboxymethyl)-2-({5-[2-(2-ethoxyethoxy)ethoxy]pyridin-2-yl}methyl)-1,4,7,10-tetraazacyclododecane-1,4,7-triyl]triacetate] | 5.9 | 5.3 | 174 % of RC1
13 | CCOc1ccc(CC2CN(CC(=O)[O-])CCN(CC(=O)[O-])CCN(CC(=O)O)CCN2CC(=O)[O-])cc1.[Gd+3] (stereo not drawn) [Example 7, Gadolinium-2,2′,2″-[10-(carboxymethyl)-2-(4-ethoxybenzyl)-1,4,7,10-tetraazacyclododecane-1,4,7-triyl]triacetate] | 6.2 | 4.5 | 103 % of RC1
